Assay results from article PMC9014410, “Discovery of V-0219: A Small-Molecule Positive Allosteric Modulator of the Glucagon-Like Peptide-1 Receptor toward Oral Treatment for “Diabesity”” (Journal of Medicinal Chemistry, 2022).
Values joined by “and” are separate entries in the source; they are usually repeats but may differ in a detail not shown here. Equal values may be shown once. “Also recorded” adds a separate entry of the source. Blank lines part the entries; values can stand above or below the molecule they belong to.

Key:
[1] = tested on: Zucker (fa/fa) obese male rats; assay: Glucose tolerance test in diabetic fatty Zucker rats; assay type: in vivo, rat; details: (S)-9 0.4 mg/kg intragastrically; ip 2 g/kg glucose
[2] = tested on: GLP-1R KO mice; assay: Glucose tolerance test in GLP-1R KO mice; assay type: in vivo, mouse; details: (S)-9; 2 g/kg glucose
Method: (§1) Glucose tolerance test was carried out both in Wistar and Zucker (fa/fa) obese male rats and in wild-type and GLP-1R KO mice, by injecting an ip glucose load of 2 g/kg body weight (diluted in saline) or by oral administration of a glucose solution (2 g/kg in a volume of water of […] body weight). Animals were food-deprived overnight (12 h fasting) before testing. Thirty minutes before glucose load, animals received by ip administration the compound being tested dissolved in saline/DMSO (0.2%) as vehicle. Tail blood samples were collected before (0 min) and 5, 10, 15, 30, 45, 60, and 120 min after glucose administration. Glucose was determined using a commercial glucometer (Accu-check, Roche Diagnostic).

[3] = tested on: Wistar rats; assay: Glucose tolerance test in Wistar rats; assay type: in vivo, rat; details: (S)-9 0.04 and 0.2 mg/kg ip; ip 2 g/kg glucose
Method: as §1

[4] = tested on: INS-1 β-cells; assay: Insulin secretion by rat INS-1 / INS-1E insulinoma cells; assay type: cell-based; details: INS-1E cells, 0.5 mM glucose, single representative experiment
Method: The incubation was done using two types of culture media, defined as low glucose (0.5–3 mM) and high glucose (15 mM). […] Incubation with compounds lasted 30 min, and then the media was collected, centrifuged at 4 °C for 2 min until assayed for insulin using commercial ELISA kit.

[5] = tested on: wild-type C57BL/6N mice; assay: Glucose tolerance test in wild-type mice; assay type: in vivo, mouse
Method: as §1

[6] = tested on: EndoC-βH1 cells; assay: Insulin secretion by human pancreatic EndoC-βH1 cells; assay type: cell-based; details: high glucose concentration
Method: Both cell lines were cultured in RPMI 1640 medium supplemented with 10% fetal calf serum as described. Cell monolayers were incubated at 37 °C in a 7.5% CO2 atmosphere. For insulin secretion studies, cells were detached, washed once with glucose-free medium and placed in 48 multiwell plates (100,000 cells per well) and kept in glucose-free medium for 1.5 h prior to incubation with drugs. The incubation was done using two types of culture media, defined as low glucose (0.5–3 mM) and high glucose (15 mM). […] Incubation with compounds lasted 30 min, and then the media was collected, centrifuged at 4 °C for 2 min until assayed for insulin using commercial ELISA kit.

[7] = tested on: male Wistar rats; assay: Feeding inhibition in 12-h fasted male Wistar rats (icv)
[8] = molecular target: hGLP-1R (Homo sapiens, UniProt P43220); assay: Calcium mobilization / calcium fluxes in HEK cells stably expressing hGLP-1R (ExviTech flow cytometry); details: 10 μM compound, then EC25 of GLP-1
[9] = molecular target: CYP2C9 (Homo sapiens, UniProt P11712); assay: P450 cytochrome inhibition, CYP2C9; assay type: in vitro ADME
Chain of CYP2C9 (P11712 whole entry, canonical isoform): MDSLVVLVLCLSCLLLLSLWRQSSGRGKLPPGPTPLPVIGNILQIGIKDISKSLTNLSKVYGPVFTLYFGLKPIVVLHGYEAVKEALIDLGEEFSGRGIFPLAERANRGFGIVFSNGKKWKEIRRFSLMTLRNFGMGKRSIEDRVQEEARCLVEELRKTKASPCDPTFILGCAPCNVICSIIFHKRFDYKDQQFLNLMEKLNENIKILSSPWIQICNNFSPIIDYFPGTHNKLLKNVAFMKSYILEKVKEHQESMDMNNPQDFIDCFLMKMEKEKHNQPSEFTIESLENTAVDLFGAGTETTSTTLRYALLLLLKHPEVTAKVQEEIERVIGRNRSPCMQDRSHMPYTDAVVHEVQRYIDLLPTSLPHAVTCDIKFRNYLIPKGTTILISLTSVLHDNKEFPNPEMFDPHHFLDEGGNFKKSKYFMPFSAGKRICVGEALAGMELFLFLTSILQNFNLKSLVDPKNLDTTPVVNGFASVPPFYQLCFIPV
Method: Inhibition of P450 cytochrome isoforms. […] Effect on hERG channel. […] Patch clamp experiments were carried out using […]® robot. […] After S27

[10] = tested on: male Wistar rats; assay: Anxiety-like behavior in the elevated plus-maze; assay type: in vivo, rat; details: 9 1 and 0.5 mg/kg ip
Method: Animals naïve to the maze were manipulated for 7 days before testing. The day of the experiment, 30 min after ip injection of 9, animals were placed in the center of the maze, facing an open arm. The number of entries and the % of time spent in the exposed arms of the maze were measured. Test length was 5 min and animals were not retested.

[11] = Microsomal stability test as summarised in the text (species not given in the sentence); assay type: in vitro ADME; details: rat, dog, human, liver microsomes; text summary of Table S6; read-out: half-life time in a microsomal stability test
[12] = In vivo pharmacokinetic study in male Sprague Dawley rats; details: rat, plasma
[13] = molecular target: T1, H1 (h) (Homo sapiens, UniProt P35367); assay: biochemical; design: radioligand displacement binding panel (Eurofins Cerep), % inhibition of control specific binding; details: antagonist radioligand; read-out: % Inhibition of Control Specific Binding
T1 construct: gene HRH1
Text: (§2) 3. Binding to off-target receptors
(§3) Eurofins Cerep (France). Significant binding affinity was defined as a displacement of target
(§4) selective radioligand greater than 50% using a concentration of 10 µM of 9.

[14] = molecular target: T2, H2 (h) (Homo sapiens, UniProt P25021); assay: biochemical; design: radioligand displacement binding panel (Eurofins Cerep), % inhibition of control specific binding; details: antagonist radioligand; read-out: % Inhibition of Control Specific Binding
T2 construct: gene HRH2
T2 sequence (P25021 whole entry): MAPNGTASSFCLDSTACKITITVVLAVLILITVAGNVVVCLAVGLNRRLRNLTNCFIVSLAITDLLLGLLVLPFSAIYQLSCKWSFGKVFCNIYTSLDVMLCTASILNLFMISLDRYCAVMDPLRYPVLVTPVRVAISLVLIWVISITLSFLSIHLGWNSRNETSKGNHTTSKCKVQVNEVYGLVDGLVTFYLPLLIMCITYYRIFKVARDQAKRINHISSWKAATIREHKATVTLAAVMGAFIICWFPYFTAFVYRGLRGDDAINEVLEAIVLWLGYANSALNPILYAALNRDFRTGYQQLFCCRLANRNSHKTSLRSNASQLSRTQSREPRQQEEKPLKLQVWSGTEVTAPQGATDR
Text: as §2, §3, §4

[15] = molecular target: CCR1 (h) (Homo sapiens, UniProt P32246); assay: biochemical; design: radioligand displacement binding panel (Eurofins Cerep), % inhibition of control specific binding; details: agonist radioligand; read-out: % Inhibition of Control Specific Binding
Text: as §2, §3, §4

[16] = molecular target: T3, NK2 (h) (Homo sapiens, UniProt P21452); assay: biochemical; design: radioligand displacement binding panel (Eurofins Cerep), % inhibition of control specific binding; details: agonist radioligand; read-out: % Inhibition of Control Specific Binding
T3 construct: gene TACR2
T3 sequence (P21452 whole entry): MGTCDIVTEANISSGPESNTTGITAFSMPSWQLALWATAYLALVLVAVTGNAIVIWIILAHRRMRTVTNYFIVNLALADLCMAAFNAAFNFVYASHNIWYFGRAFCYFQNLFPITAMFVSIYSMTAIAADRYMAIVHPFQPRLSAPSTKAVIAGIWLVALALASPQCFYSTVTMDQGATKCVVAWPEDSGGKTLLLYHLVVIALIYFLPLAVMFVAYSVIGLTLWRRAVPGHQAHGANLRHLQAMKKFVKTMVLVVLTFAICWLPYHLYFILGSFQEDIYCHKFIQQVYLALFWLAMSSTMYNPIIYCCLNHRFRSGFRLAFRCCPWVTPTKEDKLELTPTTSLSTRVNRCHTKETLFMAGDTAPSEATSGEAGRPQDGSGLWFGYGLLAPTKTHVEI
Text: as §2, §3, §4

[17] = molecular target: T4, β1 (h) (Homo sapiens, UniProt P08588); assay: biochemical; design: radioligand displacement binding panel (Eurofins Cerep), % inhibition of control specific binding; details: agonist radioligand; read-out: % Inhibition of Control Specific Binding
T4 construct: gene ADRB1
T4 sequence (P08588 whole entry): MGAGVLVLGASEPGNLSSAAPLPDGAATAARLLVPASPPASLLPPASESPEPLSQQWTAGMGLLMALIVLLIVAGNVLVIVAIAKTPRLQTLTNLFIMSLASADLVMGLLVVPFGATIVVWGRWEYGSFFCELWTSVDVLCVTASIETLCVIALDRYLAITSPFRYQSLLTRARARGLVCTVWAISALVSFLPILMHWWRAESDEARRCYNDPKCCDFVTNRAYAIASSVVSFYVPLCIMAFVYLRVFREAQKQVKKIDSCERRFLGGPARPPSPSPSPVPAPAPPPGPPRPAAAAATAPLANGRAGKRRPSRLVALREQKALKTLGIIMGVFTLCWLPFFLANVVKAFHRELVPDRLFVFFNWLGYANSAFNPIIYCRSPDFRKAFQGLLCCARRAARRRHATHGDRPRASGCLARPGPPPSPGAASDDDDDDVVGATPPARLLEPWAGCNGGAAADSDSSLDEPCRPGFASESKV
Text: as §2, §3, §4

[18] = molecular target: T5, GAL2 (h) (Homo sapiens, UniProt O43603); assay: biochemical; design: radioligand displacement binding panel (Eurofins Cerep), % inhibition of control specific binding; details: agonist radioligand; read-out: % Inhibition of Control Specific Binding
T5 construct: gene GALR2
T5 sequence (O43603 whole entry): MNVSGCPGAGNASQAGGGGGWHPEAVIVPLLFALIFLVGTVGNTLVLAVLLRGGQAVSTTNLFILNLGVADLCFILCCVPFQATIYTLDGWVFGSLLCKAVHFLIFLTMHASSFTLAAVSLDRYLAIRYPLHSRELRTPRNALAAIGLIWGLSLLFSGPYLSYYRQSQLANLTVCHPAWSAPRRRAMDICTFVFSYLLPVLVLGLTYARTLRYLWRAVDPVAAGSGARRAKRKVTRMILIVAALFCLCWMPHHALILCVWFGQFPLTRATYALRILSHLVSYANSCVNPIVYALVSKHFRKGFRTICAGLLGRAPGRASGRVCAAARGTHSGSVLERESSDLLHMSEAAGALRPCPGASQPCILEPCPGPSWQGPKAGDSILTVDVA
Text: as §2, §3, §4

[19] = molecular target: T6, B2 (h) (Homo sapiens, UniProt P30411); assay: biochemical; design: radioligand displacement binding panel (Eurofins Cerep), % inhibition of control specific binding; details: agonist radioligand; read-out: % Inhibition of Control Specific Binding
T6 construct: gene BDKRB2
T6 sequence (P30411 whole entry): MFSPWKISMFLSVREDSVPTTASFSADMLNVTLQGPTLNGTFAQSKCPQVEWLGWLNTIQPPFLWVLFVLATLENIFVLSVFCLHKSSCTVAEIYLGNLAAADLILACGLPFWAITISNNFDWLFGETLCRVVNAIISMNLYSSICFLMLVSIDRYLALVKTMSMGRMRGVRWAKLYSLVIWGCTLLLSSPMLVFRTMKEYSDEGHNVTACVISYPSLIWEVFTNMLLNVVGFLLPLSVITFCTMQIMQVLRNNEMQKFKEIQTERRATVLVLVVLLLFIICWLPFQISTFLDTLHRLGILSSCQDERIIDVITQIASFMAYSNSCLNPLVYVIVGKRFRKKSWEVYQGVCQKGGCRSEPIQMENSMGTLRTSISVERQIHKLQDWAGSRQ
Text: as §2, §3, §4

[20] = molecular target: T7, MT1 (ML1A) (h) (Homo sapiens, UniProt P48039); assay: biochemical; design: radioligand displacement binding panel (Eurofins Cerep), % inhibition of control specific binding; details: agonist radioligand; read-out: % Inhibition of Control Specific Binding
T7 construct: gene MTNR1A
Text: as §2, §3, §4

[21] = molecular target: T8, A3 (h) (Homo sapiens, UniProt P0DMS8); assay: biochemical; design: radioligand displacement binding panel (Eurofins Cerep), % inhibition of control specific binding; details: agonist radioligand; read-out: % Inhibition of Control Specific Binding
T8 construct: gene ADORA3
T8 sequence (P0DMS8 whole entry): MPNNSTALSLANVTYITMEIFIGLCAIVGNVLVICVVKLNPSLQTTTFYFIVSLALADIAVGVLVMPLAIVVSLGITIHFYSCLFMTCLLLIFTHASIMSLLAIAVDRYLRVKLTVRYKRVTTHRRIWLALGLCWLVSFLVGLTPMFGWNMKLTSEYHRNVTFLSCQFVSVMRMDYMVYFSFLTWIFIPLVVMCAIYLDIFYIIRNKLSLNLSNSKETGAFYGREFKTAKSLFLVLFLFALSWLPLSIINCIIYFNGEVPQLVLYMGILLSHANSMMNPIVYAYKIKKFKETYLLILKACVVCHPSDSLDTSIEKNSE
Text: as §2, §3, §4

[22] = molecular target: T9, A1 (h) (Homo sapiens, UniProt P30542); assay: biochemical; design: radioligand displacement binding panel (Eurofins Cerep), % inhibition of control specific binding; details: antagonist radioligand; read-out: % Inhibition of Control Specific Binding
T9 construct: gene ADORA1
Text: as §2, §3, §4

[23] = molecular target: T10, NK3 (h) (Homo sapiens, UniProt P29371); assay: biochemical; design: radioligand displacement binding panel (Eurofins Cerep), % inhibition of control specific binding; details: antagonist radioligand; read-out: % Inhibition of Control Specific Binding
T10 construct: gene TACR3
T10 sequence (P29371 whole entry): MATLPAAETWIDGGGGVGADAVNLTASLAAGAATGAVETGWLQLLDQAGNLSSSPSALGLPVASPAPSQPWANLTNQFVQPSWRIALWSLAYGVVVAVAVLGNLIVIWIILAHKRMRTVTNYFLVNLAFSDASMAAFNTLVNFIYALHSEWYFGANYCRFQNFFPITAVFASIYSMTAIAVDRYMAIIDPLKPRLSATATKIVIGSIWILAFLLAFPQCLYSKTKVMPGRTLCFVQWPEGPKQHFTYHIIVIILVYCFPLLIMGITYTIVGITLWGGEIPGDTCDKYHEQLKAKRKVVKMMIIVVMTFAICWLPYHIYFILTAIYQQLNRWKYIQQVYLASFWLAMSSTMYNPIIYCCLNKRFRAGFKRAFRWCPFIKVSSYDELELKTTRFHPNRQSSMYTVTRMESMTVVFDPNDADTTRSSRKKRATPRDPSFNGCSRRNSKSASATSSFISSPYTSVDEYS
Text: as §2, §3, §4

[24] = molecular target: T11, A2A (h) (Homo sapiens, UniProt P29274); assay: biochemical; design: radioligand displacement binding panel (Eurofins Cerep), % inhibition of control specific binding; details: agonist radioligand; read-out: % Inhibition of Control Specific Binding
T11 construct: gene ADORA2A
T11 sequence (P29274 whole entry): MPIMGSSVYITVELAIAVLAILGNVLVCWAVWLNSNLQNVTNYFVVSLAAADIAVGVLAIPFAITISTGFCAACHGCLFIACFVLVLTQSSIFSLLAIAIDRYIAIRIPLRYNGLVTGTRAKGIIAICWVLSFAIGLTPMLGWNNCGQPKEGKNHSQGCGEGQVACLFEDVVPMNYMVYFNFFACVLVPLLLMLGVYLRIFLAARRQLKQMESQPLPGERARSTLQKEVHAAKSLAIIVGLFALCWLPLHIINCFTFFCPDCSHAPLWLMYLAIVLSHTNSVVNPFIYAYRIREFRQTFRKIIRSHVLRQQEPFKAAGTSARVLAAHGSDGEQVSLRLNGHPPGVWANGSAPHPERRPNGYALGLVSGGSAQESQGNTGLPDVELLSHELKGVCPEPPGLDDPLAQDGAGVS
Text: as §2, §3, §4

[25] = molecular target: hERG channel (Homo sapiens, UniProt Q12809); assay: hERG channel inhibition, whole cell patch clamp in hERG-transfected CHO cells
Chain of hERG channel (Q12809 whole entry): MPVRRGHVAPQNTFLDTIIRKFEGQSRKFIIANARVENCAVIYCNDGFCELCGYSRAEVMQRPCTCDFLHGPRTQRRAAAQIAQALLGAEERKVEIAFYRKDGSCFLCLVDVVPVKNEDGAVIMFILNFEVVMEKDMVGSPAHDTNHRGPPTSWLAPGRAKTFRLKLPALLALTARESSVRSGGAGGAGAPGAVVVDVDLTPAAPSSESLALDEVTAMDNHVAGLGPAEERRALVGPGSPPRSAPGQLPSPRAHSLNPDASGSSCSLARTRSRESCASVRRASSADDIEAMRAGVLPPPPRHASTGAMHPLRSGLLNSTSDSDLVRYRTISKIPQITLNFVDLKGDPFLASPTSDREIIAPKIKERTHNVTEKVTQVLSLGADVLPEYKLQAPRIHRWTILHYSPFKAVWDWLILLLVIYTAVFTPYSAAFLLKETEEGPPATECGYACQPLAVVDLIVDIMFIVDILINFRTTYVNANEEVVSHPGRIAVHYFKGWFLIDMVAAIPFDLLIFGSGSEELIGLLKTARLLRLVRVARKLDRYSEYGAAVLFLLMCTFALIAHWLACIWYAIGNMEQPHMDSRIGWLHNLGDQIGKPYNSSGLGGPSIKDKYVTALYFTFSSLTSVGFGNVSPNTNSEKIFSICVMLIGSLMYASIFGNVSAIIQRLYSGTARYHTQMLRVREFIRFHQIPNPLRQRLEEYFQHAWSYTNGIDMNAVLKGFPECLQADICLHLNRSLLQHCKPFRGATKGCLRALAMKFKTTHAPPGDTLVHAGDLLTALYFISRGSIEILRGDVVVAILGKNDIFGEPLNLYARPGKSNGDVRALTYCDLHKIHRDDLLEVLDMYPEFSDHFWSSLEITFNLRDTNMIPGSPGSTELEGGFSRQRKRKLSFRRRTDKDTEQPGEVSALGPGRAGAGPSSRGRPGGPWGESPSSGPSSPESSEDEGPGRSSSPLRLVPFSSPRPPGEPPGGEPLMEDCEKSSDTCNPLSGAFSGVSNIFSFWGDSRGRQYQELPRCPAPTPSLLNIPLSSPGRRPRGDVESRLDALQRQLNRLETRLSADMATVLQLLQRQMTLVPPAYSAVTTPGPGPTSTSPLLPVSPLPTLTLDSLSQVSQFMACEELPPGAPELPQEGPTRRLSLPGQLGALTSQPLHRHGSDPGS

[26] = tested on: panel of 54 GPCRs; assay: Selectivity panel of binding assays (Eurofins Cerep); details: 10 μM; all 54 receptors
Text: as §2, §3
selective radioligand greater than 50% using a concentration of 10 µM of 9. […]

Structure (SMILES): FC(F)(F)c1ccc(-c2noc(CN3CCC[C@@H](CN4CCOCC4)C3)n2)cc1 [(S)-9, (+)-4-{[(3S)-1-({3-[4-(Trifluoromethyl)phenyl]-1,2,4-oxadiazol-5-yl}methyl)piperidin-3-yl]methyl}morpholine]
glucose handling after glucose load, oral dosing [1]: orally active | glucose handling after glucose load [2]: devoid; also recorded: inactive | glucose handling after glucose load [3]: clearly improved glucose handling | Insulin secreted ([4]; 0.1 nM test substance): 29 ng/mL | Insulin secreted ([4]; 1 nM test substance): 39 ng/mL | Insulin secreted ([4]; 10 nM test substance): 37 ng/mL | glucose handling after glucose load ([5]; (S)-9, 2 g/kg glucose, 12-h fasted): improvement | potentiation of insulin secretion stimulated by GLP-1 (in words) [6]: similarly potentiate insulin secretion stimulated by GLP-1 | duration of the feeding effect after injection ([7]; (S)-9 5 μg/kg icv): up to 2 h | effect on feeding ([7]; (S)-9 5 μg/kg icv): decreased feeding

result of ExviTech library screening [8]: putative modulator of the GLP-1R
Structure (SMILES): O=S(=O)(NC1CCN(Cc2nc(-c3ccc(C(F)(F)F)cc3)no2)CC1)c1ccccc1Cl [compound 1]

Structure (SMILES): FC(F)(F)c1ccc(-c2noc(CN3CCCC(CN4CCOCC4)C3)n2)cc1 (stereo not shown) [compound 9, 4-{[1-({3-[4-(Trifluoromethyl)phenyl]-1,2,4-oxadiazol-5-yl}methyl)piperidin-3-yl]methyl}morpholine]
IC50 [9]: 80 µM | glucose handling after ip glucose load ([5]; 9 0.1 mg/kg ip, ip 2 g/kg glucose, 0.1 mg/kg): improved glucose handling | glucose handling after oral glucose load ([5]; 9 0.1 or 1 mg/kg ip, oral 2 g/kg glucose): improved glucose handling | anxiety-like behavior in the elevated plus-maze [10]: does not induce anxiety-like behavior; also recorded: did not result in the emergence of anxiety-like behaviors nor hypolocomotion | potentiation of feeding inhibition induced by exendin-4 (in words) ([7]; 9 1 μg/kg icv): potentiates; also recorded: potentiate the feeding inhibition; also recorded: enhancing satiety induced by the GLP-1R agonist exendin-4 | half-life at 1 µM [11]: > 30 min | AUC(0-inf) at 24 h ([12]; IV 2 mg/kg, mean ± SD, N = 4): 311 ± 12.9 ng·h/mL | AUC(0-t) at 24 h ([12]; IV 2 mg/kg, mean ± SD, N = 4): 278 ± 20 ng·h/mL | C0 ([12]; IV 2 mg/kg, mean ± SD, N = 4): 492 ± 81.9 ng/mL | clearance at 24 h ([12]; IV 2 mg/kg, mean ± SD, N = 4): 107 ± 4.58 mL/min/kg | half-life at 24 h ([12]; IV 2 mg/kg, mean ± SD, N = 4): 195 ± 61.8 min | Vd at 24 h ([12]; IV 2 mg/kg, mean ± SD, N = 4, read-out: Vss): 18.1 ± 6.62 L/kg | bioavailability ([12]; PO 10 mg/kg vs IV 2 mg/kg): 39% | bioavailability at 24 h ([12]; PO 10 mg/kg vs IV 2 mg/kg): 38.9 ± 9.52% | AUC(0-inf) at 24 h ([12]; PO 10 mg/kg, mean ± SD, N = 4): 644 ± 267 ng·h/mL | AUC(0-t) at 24 h ([12]; PO 10 mg/kg, mean ± SD, N = 4): 540 ± 132 ng·h/mL | Cmax at 24 h ([12]; PO 10 mg/kg, mean ± SD, N = 4): 185 ± 14.5 ng/mL | Tmax at 24 h ([12]; PO 10 mg/kg, mean ± SD, N = 4): 49.8 ± 17.4 min | half-life at 24 h ([12]; PO 10 mg/kg, mean ± SD, N = 4): 172 ± 113 min | Tmax ([12]; oral route, 10 mg/kg, read-out: time of maximal concentration post-ingestion (converted)): 50 min | inhibition at 10 µM [13]: -4% | inhibition at 10 µM [14]: -13% | inhibition at 10 µM [15]: 4% | inhibition at 10 µM [16]: 19% | inhibition at 10 µM [17]: 3% | inhibition at 10 µM [18]: 0% | inhibition at 10 µM [19]: 8% | inhibition at 10 µM [20]: -3% | inhibition at 10 µM [21]: -20% | inhibition at 10 µM [22]: 5% | inhibition at 10 µM [23]: -8% | inhibition at 10 µM [24]: -3% | IC50 [25]: 4.13 µM | hERG inhibition (in words) [25]: weak inhibitor of the hERG channel at micromolar concentrations | Inhibition (%), Mean ([25]; 1 µM): 29.7% | Inhibition (%), single values ([25]; 1 µM): 27.0% and 32.3% | Inhibition (%), Mean ([25]; 10 µM): 62.3% | Inhibition (%), single values ([25]; 10 µM): 52.1% and 72.5% | Inhibition (%), Mean ([25]; 30 µM): 80.5% | Inhibition (%), single values ([25]; 30 µM): 78.0% and 83.0% | displacement of the specific binding [26]: lower than 50%
